Laboratory results published in patent US10548999B2, “Method and apparatus for sterilizing preform” (DAI NIPPON PRINTING CO., LTD., priority 2012, dated 2020).
Read-outs that look alike come from different tables or passages of the source.

What was measured:
[1] = preform molded into a bottle and filled with water
Description: (§1) Mist of hydrogen peroxide water was produced by supplying hydrogen peroxide water of 35% concentration and pressurized air to a two-fluid spray, the thus produced mist was mixed with hot air having temperature of 60° C., and then, the mist of the hydrogen peroxide water was sprayed inside a chamber through a nozzle. The chamber is a box-shaped member, having no bottom, having a size of 1,000 mm width, 1,500 mm length and 200 mm height, and the box-shaped chamber was set to a predetermined position on the conveyer having 600 mm width. Preforms of the number of 860 bottles/min., each being formed into a bottle of […], were supplied to the conveyer, which is driven at a speed of 0.2/sec.

BaciLLus subtiLis [2] = details: 35% hydrogen peroxide water mist mixed with 60° C. hot air, about 50 mg per preform
Description: as §1

AspergiLLus niger [3] = tested on: AspergiLLus niger
Description: (§2) The first chamber 5a and the second chamber 6a have size of 1000 mm width, and 1500 mm length, and 200 mm height, respectively. Preforms, each being formed into a bottle of 500 ml, were supplied to the conveyer by the number of 860 bottles/min., and the conveyer was driven at a predetermined speed.
(§3) In the above Table 4, term “B” is an abbreviated term of “BaciLLus subtiLis”, and “A.nig.” is an abbreviated term of “AspergiLLus niger”. “D” is a D-valve indicating the sterilization effect.

BaciLLus subtiLis [4] = tested on: BaciLLus subtiLis
Description: as §2, §3

BaciLLus subtiLis [5] = tested on: BaciLLus subtiLis; remark: listed apart in the source
Description: The hydrogen peroxide water adhered to each preform having inner volume of 500 ml for bottle as in the first example 1. Furthermore, superheated steam of flow amount of 0.7 g/sec. generated by heating water by a superheated steam generator of an induction heating system was sprayed to the inner surface of each preform from a nozzle having inner diameter of 8 mm at blasting temperature in a range of 180 to 550° C. for 10 to 3 sec.
Further, it is to be noted that, in the above Table 3, the sterilization effect is shown with [∘] (good) in the case where the D-value with respect to BaciLLus subtiLis is not less than 6, and the other cases are shown with [x] (not good). With respect to the deformation of the inner diameter, in the case where the inner diameter of the preform is deformed by less than 0.05 mm is shown [∘] (good), and the other cases are shown with [x] (not good).

AspergiLLus niger [6] = details: then superheated steam 300° C. 5 sec. to inner surface
Description: (§4) Mist of hydrogen peroxide water was produced by supplying hydrogen peroxide water of 35% concentration and pressurized air to a two-fluid spray, the thus produced mist was mixed with hot air having temperature of 60° C., and then, the mist of the hydrogen peroxide water was sprayed inside a chamber through a nozzle. The chamber has a size of 600 mm width, and a conveyer has 1.5 m length. Preforms, each being formed into a bottle of […], were supplied to the conveyer by the number of 860 bottles/min., and the conveyer was driven at a speed of 0.2/sec. […] Furthermore, preforms, each being formed into a bottle of […], were supplied by the number of 250 bottles/min., and the same operation was performed. […] Such preforms were subjected to the following treatment.
(§5) Superheated steam of flow amount of 0.7 g/sec. generated by heating water by a superheated steam generator of induction heating system was sprayed to each inner surface of the preform from a nozzle having inner diameter of 8 mm at blasting temperature of 300° C. for 5 sec.
(§6) In the above Table 1, term “B” is an abbreviated term of “BaciLLus subtiLis”, and “A.nig.” is an abbreviated term of “AspergiLLus niger”. “D” is a D-valve indicating the sterilizing effect.

BaciLLus subtiLis [7] = details: then superheated steam 300° C. 5 sec. to inner surface
Description: as §4, §5, §6

[8] = hydrogen peroxide 3%, hot air NO, superheated steam 400° C., 0.2 m/sec.
[9] = preform for 2 L, 35% mist about 150 mg
[10] = preform for 500 mL, 35% mist about 50 mg

For OO [hydrogen peroxide], the “remaining amount of the hydrogen peroxide” value [1] was 0.012 ppm, the sterilizing power (BaciLLus subtiLis [2]; inner surface of the preform) was 4.2 D and the sterilizing power (BaciLLus subtiLis [2]; outer surface of the preform) was 5.3 D. The “sterilization effect A. niger” value (AspergiLLus niger [3]; [8]) was 6.0D, the “sterilizing effect with respect to the A. niger” value (AspergiLLus niger [3]; superheated steam added with hydrogen peroxide, regardless of the preheating by hot air (summary of Table 4)) was “more than 6.0 D” and the “sterilization effect B. sub.” value (BaciLLus subtiLis [4]; hydrogen peroxide 3%, hot air 100° C., superheated steam 200° C., 0.2 m/sec.) was 5.3D. For the same molecule, the “sterilization effect B. sub.” value (BaciLLus subtiLis [4]; hydrogen peroxide 3%, hot air 100° C., superheated steam 400° C., 0.2 m/sec.) was 6.0D, the “sterilization effect B. sub.” value (BaciLLus subtiLis [4]; [8]) was 4.0D and the “sterilization effect B. sub.” value (BaciLLus subtiLis [4]; hydrogen peroxide 10%, hot air 80° C., superheated steam 400° C., 0.2 m/sec.) was 6.0D. For the same molecule, the “sterilization effect B. sub.” value (BaciLLus subtiLis [4]; hydrogen peroxide 10%, hot air NO, superheated steam 400° C., 0.5 m/sec.) was 5.5D, the “sterilizing effect with respect to the B.sub” value (BaciLLus subtiLis [4]; preheating performed and superheated steam added with hydrogen peroxide blasted (summary of Table 4)) was “more than 6.0 D” and the “Sterilizing Effect” value (BaciLLus subtiLis [5]; hydrogen peroxide water as in Example 1, then superheated steam 180° C., 10 sec.) was “X (the other cases are shown with [x] (not good))”. For the same molecule, the “Sterilizing Effect” value (BaciLLus subtiLis [5]; hydrogen peroxide water as in Example 1, then superheated steam 250° C., 6 sec.) was “◯ ([∘] (good) in the case where the D-value with respect to BaciLLus subtiLis is not less than 6)”, the “Sterilizing Effect” value (BaciLLus subtiLis [5]; hydrogen peroxide water as in Example 1, then superheated steam 350° C., 4 sec.) was “◯ ([∘] (good) in the case where the D-value with respect to BaciLLus subtiLis is not less than 6)” and the “Sterilizing Effect” value (BaciLLus subtiLis [5]; hydrogen peroxide water as in Example 1, then superheated steam 450° C., 3 sec.) was “◯ ([∘] (good) in the case where the D-value with respect to BaciLLus subtiLis is not less than 6)”. The “Sterilizing Effect” value (BaciLLus subtiLis [5]; hydrogen peroxide water as in Example 1, then superheated steam 550° C., 3 sec.) was “◯ ([∘] (good) in the case where the D-value with respect to BaciLLus subtiLis is not less than 6)”, the “sterilizing effect A. nig” value (AspergiLLus niger [6]; [9]) was “More than 6.0D” and the “sterilizing effect A. nig” value (AspergiLLus niger [6]; [10]) was “More than 6.0D”. The “sterilizing effect B. sub.” value (BaciLLus subtiLis [7]; [9]) was 3.0D and the “sterilizing effect B. sub.” value (BaciLLus subtiLis [7]; [10]) was 3.1D.
